{"source": "patent US8263736B2", "about": "“Compounds and their effects on feeding behaviour” (Imperial Innovations Limited, priority 2006, dated 2012)", "key": {"[1]": {"system": "Male C57BL/6 mice", "assay": "Food intake in fasted mice after a single intraperitoneal injection (Example 1, 3 different PYY analogues)", "assay_type": "in vivo", "details": "single i.p. injection", "procedure": "(§1) Male C57BL/6 mice (20-30 g) were used for all mouse experiments. Mice were individually housed in IVC cages. Animals were randomised by weight and fasted overnight for 16 hrs before intraperitoneal injection at 9 am. Food intake was measured at 1, 2, 3, 4, 6, 8 and 24 hours post injection. All peptide solutions were prepared freshly the morning of the study and injected as 100 ul. All statistics are calculated using a one-way ANOVA with Dunnett's post-test or one-way ANOVA with Bonferroni post-test.\n(§2) A control of saline was used."}, "[2]": {"system": "Male C57BL/6 mice", "assay": "Food intake in fasted mice, dose response experiment for PYY3-36Lys12Lauryl (Example 2)", "assay_type": "in vivo", "procedure": "as §1, §2"}}}
{"substance": "PYY3-36Lys12Lauryl: PYY3-36 with the residue at position 12 replaced with a lysine residue coupled to a lauroyl group, SEQ ID NO: 14", "values": [{"measurement": "overall reduction in cumulative food intake versus saline control", "setting": "[1]; 120 nmol/kg, 24 hour period, fasted mice", "value": 6.1, "unit": "%"}, {"measurement": "persistence of effect on food intake compared with saline, PYY3-36 (30 nmol/kg) and PYY3-36Lys12 (60 and 120 nmol/kg)", "setting": "[1]", "value": "most sustained effect"}, {"measurement": "onset of food intake reduction compared with 60 nmol/kg native PYY3-36", "setting": "[2]; 240 nmol/kg, mice", "value": "slower onset of food intake reduction"}, {"measurement": "persistence of food intake reduction compared with 60 nmol/kg native PYY3-36", "setting": "[2]; 240 nmol/kg, mice", "value": "greater persistence of effect"}, {"measurement": "food consumed in the first, second and third hour: relation to dose", "setting": "[2]; 60, 120 and 240 nmol/kg, single i.p. injection, 240 greater effect than 120, both greater than 60 nmol/kg", "value": "does-response relationship"}, {"measurement": "time at which food intake (in a given time period) becomes greater than in saline control mice", "setting": "[2]; single i.p. injection, PYY3-36Lys12Lauryl 60, 120, 240 nmol/kg, PYY3-36 30 nmol/kg, FIG. 5", "value": "around 6 hours"}]}
